Measured values taken from US20240058390A1, “WNT+ ADIPOCYTES, EXOSOMES FROM WNT+ ADIPOCYTES, AND METHODS OF MAKING AND USING THEM” (The Administrators of the Tulane Educational Fund, priority 2020, published 2024).
Entries after “also recorded” stand apart in the source; their conditions may differ.

Tests used:
[1] = system: Wnt^+ adipocytes in iWAT and iBAT; test: mTOR antagonist treatment of T/L-GFP mice, quantification of Wnt+ adipocytes; format: in vivo, mouse; conditions: T/L-GFP adult mice, 600 μg/kg i.p. daily for 5 days, vs vehicle
Method: (§1) For cold-exposure experiments, mice were singly caged and exposed to cold temperature at 6° C. for 2, 4, or 14 consecutive days. For β3-adrenoceptor agonist treatment, adult male mice were injected intraperitoneally with CL316,243 (CAS No. 138908-40-4, product C5976, Sigma-Aldrich Inc., St. Louis, MO) at 1 mg/kg body weight daily for 4 consecutive days prior to sample collection. Age-matched male littermates were treated intraperitoneally with saline as vehicle controls. […]
(§2) Adipose tissue was fixed in 4% PFA at 4° C. overnight, followed by dehydration through serial ethanol. […] After washing, sections were processed with a Vector TrueVIEW™ Autofluorescence Quenching Kit treatment (Vector Laboratories, Inc, Burlingame, CA, SP-8400) for 5 min to remove unspecific fluorescence on sections due to red blood cells and structural elements such as collagen and elastin. […] Images of tissue samples were captured using a Nikon confocal Microscope A1 HD25 (Nikon Instruments Inc., Melville, NY) and analyzed using ImageJ software (Version 1.51S). For quantification of Wnt^+ adipocytes, we randomly chose 12-18 images from each tissue of one mouse. Microscopic pictures (10× objective) were taken, and the total cell number and the number of GFP^+ adipocytes within each image were counted.

[2] = system: Wnt^+ adipocytes in iWAT of T/L-DTA mice; test: Tamoxifen-induced ablation of Wnt+ adipocytes in T/L-DTA mice; format: in vivo, mouse; conditions: 150 mg/kg i.p., 2 days
Method: To ablate Wnt^+ adipocytes in vivo, Fabp4-Flex-DTA mice were crossed with Tcf/Lef-CreERT2 mice to generate Tcf/Lef-CreERT2;Fabp4-Flex-DTA mice (“T/L-DTA” mice), which received 2-day tamoxifen administration via intraperitoneal injection at the dose of 150 mg/kg body weight. […] Forty-eight hours later, T/L-DTA mice and tamoxifen-treated littermate controls (Fabp4-Flex-DTA mice) were housed at 6° C. for 2 days, respectively.

[3] = system: Wnt/β-catenin signaling; test: Wnt/β-catenin signaling activity (TCF/Lef:H2B-GFP reporter) in SVF precursors under pro-adipogenic conditions; format: cell-based, mouse; conditions: DKK1 100 ng/ml, IWP-2 5 μM, LF3 10 and 20 μM
Method: (§3) Immortalized cell lines, isolated adipose SVF cells, MEFs, and BMSCs were seeded into plates at the density of 4×10^3 cells/cm^2 (cell line and SVF) or 1.5×10^4 cells/cm2 (BMSCs) in MesenCult™ Expansion medium (Stemcell Technologies Inc., Cambridge, MA, catalog no. 05513), and treated with MesenCult™ Adipogenic Differentiation cocktail (Stemcell, catalog no. 05507) with 90% cell confluence. Cells were cultured for various days after pro-adipogenic induction prior to being harvested for following experiments. Adipogenesis was examined by lipid staining. Briefly, differentiated adipocytes were washed twice with PBS, fixed in 4% paraformaldehyde (PFA) for 15 min, and then stained with Oil Red O solution (Sigma-Aldrich, catalog no. 01391) for 20 min at ambient temperature or with 20 nM BODIPY (dipyrrometheneboron difluoride, catalog no. D3835, Thermo Fisher Scientific) in PBS for 15 min at 37° C. Subsequently, cells were washed with PBS before imaging.
(§4) For inhibition studies, SVF cells or precursor cell lines, 3 days after pro-adipogenic induction, were treated with each of the following molecules for 4 days: DKK1 (product 5897-DK-010, R&D Systems, Minneapolis, MN) (100 ng/ml), IWP-2 (catalog no. 72122, Stemcell), (5 μM), LF3 (catalog no. 58474, Selleck Chemicals) (10 and 20 μM, or 50 μM on cell lines), and LY294002 (catalog no. S1105, Selleck Chemicals) (2 and 14 μM), along with vehicles (PBS or DMSO).

[4] = system: iBAT-derived SVF cells; test: Adipogenic maturation of SVF-derived adipocytes (Oil Red O staining); format: cell-based, mouse; conditions: LF3, dose-dependent
Method: as §3, with “imaging. […]” for “imaging.”

[5] = system: Wnt^− adipocytes induced from GFPneg precursor cell lines; test: Treatment of induced Wnt− adipocytes from GFPneg precursor cell lines (viability, maturation); format: cell-based, mouse
Source text: (§5) SVFs of iBAT from adult TCF/Lef:H2B-GFP male mice were separated and collected as described above. Cells at passage 1 were transduced with pUltra-hot-LT LV particles. Two days after transduction, cells were purified by performing FACS to remove mCherry- and Lin+ cells Immortalized cells were subjected to clonal selection through serial limited dilutions. The expression of GFP in cell colonies under pro-adipogenic induction was used as a readout for the accurate establishment of Wnt+ (>95%) and Wnt− (Wnt+=0%) adipocyte cell lines, respectively.
as §3, §4

[6] = system: uninduced Wnt^+ and Wnt^− precursor cell lines; test: Treatment of uninduced Wnt+ and Wnt− precursor cell lines; format: cell-based, mouse; conditions: same dose of LF3
Source text: as §5
[…] S1105, Selleck Chemicals) (2 and 14 μM), along with vehicles (PBS or DMSO).

[7] = system: Wnt^+ adipocytes induced from GFPpos-1 and GFPpos-2 cell lines; test: Treatment of induced Wnt+ adipocytes from GFPpos-1 and GFPpos-2 cell lines (GFP signal, cell death); format: cell-based, mouse
Source text: as §5, §3, §4

[8] = system: Wnt^+ adipocytes in iWAT; test: β3-adrenoceptor agonist treatment of T/L-GFP mice, beiging in iWAT; format: in vivo, mouse; conditions: 1 mg/kg i.p. daily for 4 days
Method: as §1, §2

Molecule: CO[C@H]1C[C@@H]2CC[C@@H](C)[C@@](O)(O2)C(=O)C(=O)N2CCCC[C@H]2C(=O)O[C@H]([C@H](C)C[C@@H]2CC[C@@H](OC(=O)C(C)(CO)CO)[C@H](OC)C2)CC(=O)[C@H](C)/C=C(\C)[C@@H](O)[C@@H](OC)C(=O)[C@H](C)C[C@H](C)/C=C/C=C/C=C/1C [temsirolimus, Temsirolimus]
- Wnt+ adipocyte numbers in iBAT [1]: dramatically reduced Wnt^+ adipocyte numbers
- Wnt+ adipocyte numbers in iWAT [1]: dramatically reduced Wnt^+ adipocyte numbers

Molecule: CC/C(=C(\c1ccccc1)c1ccc(OCCN(C)C)cc1)c1ccccc1 [tamoxifen]
- ablation of Wnt+ adipocytes in iWAT [2]: about 87%

Molecule: LF3
- inhibition of Wnt/β-catenin signaling activity [3]: did inhibit
- adipogenic maturation of SVF-derived adipocytes [4]: impaired/delayed adipogenic maturation
- cell viability of induced Wnt− adipocytes ([5]; LF3): did not affect cell viability
- maturation of Wnt− adipocytes ([5]; LF3): slowed down the maturation
- adipogenic capacity of LF3-treated Wnt− adipocytes after return to normal pro-adipogenic medium ([5]; LF3, rescue experiment): resumed full adipogenic capacity
- impact on uninduced precursor cell lines [6]: showed no impacts
- GFP expression in induced Wnt+ adipocytes ([7]; 50 μM LF3, first day): quenched GFP expression; also recorded: GFP signals are significantly quenched
- cell number of induced Wnt+ adipocytes ([7]; 50 μM LF3, one day): obviously reduced cell numbers
- cell death of induced Wnt+ adipocytes ([7]; 50 μM LF3, second day): massive cell death; also recorded: Remarkable cell death

Molecule: C[C@H](Cc1ccc2c(c1)OC(C(=O)[O-])(C(=O)[O-])O2)NC[C@H](O)c1cccc(Cl)c1.[Na+].[Na+] [CL316,243]
- proportion of Wnt+ adipocytes in iWAT [8]: unaltered

Molecule: Cc1ccc2nc(NC(=O)CSc3nc4c(c(=O)n3-c3ccccc3)SCC4)sc2c1 [1WP-2, IWP-2]
- inhibition of Wnt/β-catenin signaling activity [3]: failed to

B1: DKK1: canonical Wnt receptor antagonist (R&D Systems 5897-DK-010) (protein, UniProt O94907 32-266, looked up)
Dickkopf-related protein 1: TLNSVLNSNAIKNLPPPLGGAAGHPGSAVSAAPGILYPGGNKYQTIDNYQPYPCAEDEECGTDEYCASPTRGGDAGVQICLACRKRRKRCMRHAMCCPGNYCKNGICVSSDQNHFRGEIEETITESFGNDHSTLDGYSRRTTLSSKMYHTKGQEGSVCLRSSDCASGLCCARHFWSKICKPVLKEGQVCTKHRRKGSHGLEIFQRCYCGEGLSCRIQKDHHQASNSSRLHTCQRH
- inhibition of Wnt/β-catenin signaling activity [3]: failed to
